# Assay results as given in ChEMBL document CHEMBL1201862, “PubChem BioAssay data set” (2004).
#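 How tested: cells in 96-well plates exposed to compound for 48 hours at five concentrations. The concentration for 50% growth inhibition is given as GI50.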 The source made the active and inactive calls. No stated cut-off is given here; in the data, active = GI50 up to about 1.1 µM and inactive = higher.
# How the values were obtained:
# Assay in all cases: NCI tumour cell line growth inhibition, 48 h
# SF-268 = tested on: SF-268
# UACC-62 = tested on: UACC-62
# UO-31 = tested on: UO-31
# DU-145 = tested on: DU-145
# TK-10 = tested on: TK-10
# SN12C = tested on: SN12C
# MDA-N = tested on: MDA-N
# SK-MEL-5 = tested on: SK-MEL-5
# OVCAR-8 = tested on: OVCAR-8
# NCI-H460 = tested on: NCI-H460
# ACHN = tested on: ACHN
# A498 = tested on: A498
# PC-3 = tested on: PC-3
# OVCAR-3 = tested on: OVCAR-3
# LOX IMVI = tested on: LOX IMVI
# SK-MEL-28 = tested on: SK-MEL-28
# HOP-92 = tested on: HOP-92
# SNB-75 = tested on: SNB-75
# Hs-578T = tested on: Hs-578T
Structure (SMILES),GI50 (SF-268),GI50 (UACC-62),GI50 (UO-31),GI50 (DU-145),GI50 (TK-10),GI50 (SN12C),GI50 (MDA-N),GI50 (SK-MEL-5),GI50 (OVCAR-8),GI50 (NCI-H460),GI50 (ACHN),GI50 (A498),GI50 (PC-3),GI50 (OVCAR-3),GI50 (LOX IMVI),GI50 (SK-MEL-28),GI50 (HOP-92),GI50 (SNB-75),GI50 (Hs-578T)
CCNC(=S)NNC(=O)c1csc(NC(=S)NC2CCCCC2)n1,10.8 µM (inactive),6.18 µM (inactive),8.45 µM (inactive),12.1 µM (inactive),19.1 µM (inactive),3.19 µM (inactive),2.9 µM (inactive),2.79 µM (inactive),10 µM (inactive),6.62 µM (inactive),7 µM (inactive),23 µM (inactive),17.4 µM (inactive),3.25 µM (inactive),5.83 µM (inactive),,,,
CC(CO)CCC(O)C(C)(O)C1CCC2(O)C3=CC(=O)C4CC(O)C(O)CC4(C)C3CCC12C (stereo not given),,> 100 µM (inactive),> 100 µM (inactive),> 100 µM (inactive),,> 100 µM (inactive),> 100 µM (inactive),> 100 µM (inactive),> 100 µM (inactive),> 100 µM (inactive),> 100 µM (inactive),> 100 µM (inactive),> 100 µM (inactive),> 100 µM (inactive),> 100 µM (inactive),> 100 µM (inactive),> 100 µM (inactive),84.3 µM (inactive),
O=c1onc2n1-c1cc(Cl)ccc1C(=S)N1CSCC21 (stereo not given),> 100 µM (inactive),> 100 µM (inactive),> 100 µM (inactive),> 100 µM (inactive),> 100 µM (inactive),> 100 µM (inactive),> 100 µM (inactive),> 100 µM (inactive),> 100 µM (inactive),> 100 µM (inactive),> 100 µM (inactive),> 100 µM (inactive),> 100 µM (inactive),> 100 µM (inactive),> 100 µM (inactive),> 100 µM (inactive),,31.3 µM (inactive),> 100 µM (inactive)
CN1C(=O)C(O)CC1c1ccccc1C(F)(F)F (stereo not given),,> 100 µM (inactive),> 100 µM (inactive),> 100 µM (inactive),,> 100 µM (inactive),> 100 µM (inactive),> 100 µM (inactive),> 100 µM (inactive),> 100 µM (inactive),> 100 µM (inactive),> 100 µM (inactive),> 100 µM (inactive),> 100 µM (inactive),> 100 µM (inactive),> 100 µM (inactive),> 100 µM (inactive),> 100 µM (inactive),
COc1c2c(cc3occ(-c4ccc(CC=C(C)C)cc4)c(=O)c13)OC(C)(C)C=C2,> 100 µM (inactive),> 100 µM (inactive),33.1 µM (inactive),84.7 µM (inactive),81.8 µM (inactive),84.1 µM (inactive),44.6 µM (inactive),11.7 µM (inactive),48.4 µM (inactive),,77.6 µM (inactive),,17.1 µM (inactive),10.3 µM (inactive),23.6 µM (inactive),> 100 µM (inactive),,60.1 µM (inactive),85.1 µM (inactive)
CNc1nnc(CNc2ccc(-c3nnc(NC)n3N)cc2)n1N,> 100 µM (inactive),,> 100 µM (inactive),> 100 µM (inactive),> 100 µM (inactive),> 100 µM (inactive),> 100 µM (inactive),> 100 µM (inactive),> 100 µM (inactive),> 100 µM (inactive),> 100 µM (inactive),> 100 µM (inactive),> 100 µM (inactive),> 100 µM (inactive),> 100 µM (inactive),> 100 µM (inactive),> 100 µM (inactive),> 100 µM (inactive),
CC(C)(C)OC(=O)[C@H]1CCC(=S)N1Cc1ccccc1,,> 100 µM (inactive),> 100 µM (inactive),> 100 µM (inactive),> 100 µM (inactive),> 100 µM (inactive),> 100 µM (inactive),> 100 µM (inactive),> 100 µM (inactive),> 100 µM (inactive),> 100 µM (inactive),> 100 µM (inactive),> 100 µM (inactive),> 100 µM (inactive),> 100 µM (inactive),> 100 µM (inactive),> 100 µM (inactive),> 100 µM (inactive),
CCOC(=O)C1(C/C=C\CBr)CCCC1=O (stereo not given),32.5 µM (inactive),15.7 µM (inactive),21.9 µM (inactive),27.5 µM (inactive),13.2 µM (inactive),18.4 µM (inactive),,26.7 µM (inactive),30.1 µM (inactive),,20.4 µM (inactive),> 100 µM (inactive),36.7 µM (inactive),,15.7 µM (inactive),47.3 µM (inactive),,27 µM (inactive),55.6 µM (inactive)
CCC(C)c1c(Cl)nc(Cl)nc1Cl (stereo not given),8.04 µM (inactive),18.6 µM (inactive),17.9 µM (inactive),16.3 µM (inactive),21.3 µM (inactive),6.89 µM (inactive),6.44 µM (inactive),2.81 µM (inactive),17.9 µM (inactive),7.46 µM (inactive),3.37 µM (inactive),,12.7 µM (inactive),4.57 µM (inactive),0.44 µM (active),7.18 µM (inactive),,13.8 µM (inactive),21.6 µM (inactive)
C/C(=N\O)c1ccc2ccc3ccccc3c2c1,44.9 µM (inactive),18.9 µM (inactive),35.1 µM (inactive),33.3 µM (inactive),37.9 µM (inactive),30.8 µM (inactive),,19.2 µM (inactive),21.6 µM (inactive),42.6 µM (inactive),32.8 µM (inactive),,32.3 µM (inactive),34.2 µM (inactive),24.5 µM (inactive),44.2 µM (inactive),,25.5 µM (inactive),27.6 µM (inactive)
N=C(N)N1CCC(N2CCOCC2)CC1,> 100 µM (inactive),> 100 µM (inactive),> 100 µM (inactive),> 100 µM (inactive),> 100 µM (inactive),> 100 µM (inactive),,> 100 µM (inactive),> 100 µM (inactive),> 100 µM (inactive),> 100 µM (inactive),> 100 µM (inactive),,,,> 100 µM (inactive),> 100 µM (inactive),> 100 µM (inactive),> 100 µM (inactive)
O/N=N/c1ccc(Sc2ccc(/N=N/O)cn2)nc1,> 100 µM (inactive),> 100 µM (inactive),46.8 µM (inactive),> 100 µM (inactive),> 100 µM (inactive),> 100 µM (inactive),> 100 µM (inactive),> 100 µM (inactive),> 100 µM (inactive),> 100 µM (inactive),> 100 µM (inactive),> 100 µM (inactive),> 100 µM (inactive),> 100 µM (inactive),,> 100 µM (inactive),,> 100 µM (inactive),> 100 µM (inactive)
